Patent publication US12605480B2, “Tough gel-based drug delivery compositions and methods thereof” (priority 2019, dated 2026)
Values after ≈ are worked out from the molar mass of the structure shown.

How the values were obtained:
[1] = cited from earlier work
[2] = rat, in vivo; cited from earlier work
[3] = Solubility of CORT in water and other solutions; type: physicochemical
Experimental: The solubility of CORT in various water and other solutions were evaluated over a period of 24 h.

Structure (SMILES): CC1(C)O[C@@H]2C[C@H]3[C@@H]4CCC5=CC(=O)C=C[C@]5(C)[C@@]4(F)[C@@H](O)C[C@]3(C)[C@]2(C(=O)CO)O1 [Triamcinolone acetonide]
- water solubility [1]: 20 µg/mL (≈ 46 µM)
- acute toxicity (oral LD50) [2]: 1451 mg/kg
- solubility at 24 h ([3]; DMSO:ddH2O 1:4, aqueous with cosolvent or surfactant or cyclodextrin, DMSO:ddH2O ratio of 1:4): ~1000 µg/mL
- solubility at 24 h ([3]; ddH2O and water-based solutions of 2% alginate and 12% acrylamide, 24 h): 10 to 100 µg/mL (≈ 23 to 230 µM)
- solubility ([3]; water 37° C., input of the FE model, read-out: maximum solubility sol(water 37° C.) / Csol): 33 µg/mL (≈ 75.9 µM)
